The values below come from patent US20070110901A1, “Method for identifying weakly binding molecule fragments having ligand properties, whereby the molecule fragments are applied in the form of microdrops of a corresponding solution to the crystal” (Proteros Biostructures GMBH, priority 2003, published 2007).

Test [1] deals with DPIV (dipeptidyl peptidase IV). Briefly: X-ray crystallography of DPIV crystal treated with inhibitor (FIG. 5). The class given is binding. To be noted: active center of DPIV around Ser630; 2F0-F0 density outlined at 1σ. An excerpt: Oxygen atoms are depicted in red, nitrogen atoms in blue, and carbon atoms in gray. Additionally, the inhibitor as well as Ser630, which is covalently coupled to the inhibitor, is overlaid by its 2F0-F0 electron density (outlined at 1σ). The inhibitor is clearly defined concerning its electron density (FIG. 5).
From the used tripeptide having the sequence Ile-Pro-Ile, the C-terminal isoleucine is cleaved off while the dipeptide remains covalently linked with Ser630 and is not cleaved off.
The target enzyme was DPIV (dipeptidyl peptidase IV). Different fragments were solved in a cocktail together. In a cocktail (i), molecules of two different molecule species were combined, i.e. a mimetic (altered peptide backbone (vinyl derivative) of the N-terminal dipeptide of a substrate of the DPIV (having a free N-terminus) and, on the other hand, a mimetic (also a dipeptide with acetylated, blocked N-terminus, also. as. framework mimetic—vinyl derivative). In a second cocktail (ii), five different molecule species (which differed concerning both side chains of the two dipeptide mimetics) from each of the two mimetic classes, i.e. 10 molecule species altogether, were combined in a cocktail.

For a further test, the system named is thrombin. In words: X-ray crystallography of freely mounted crystal after dripping on picoliter drops (FIG. 4). The class given is binding. To be noted: active center of thrombin around Ser195; 2F0-F0 density outlined at 1σ. An excerpt: FIG. 4: The covalently bound inhibitor as well as individual amino acids in the environment of the active center of the thrombin around Ser195 are depicted in the form of a stick model. Oxygen atoms are depicted in red, sulfur atoms in yellow, nitrogen atoms in blue, and carbon atoms in gray. Additionally, the inhibitor is overlaid by its 2F0-F0 electron density (outlined at 1σ). The inhibitor is clearly defined concerning its electron density.
Thereby, evidence has been offered that the approach of dripping picoliter drops onto a protein crystal by use of the free mounting system works.

diprotin A: in test [1], the “binding mode seen in electron density” value is “rather acts as a suicide substrate than as an inhibitor”. As to `O=S(=O)(F)Cc1ccccc1` [PMSF, phenylmethylsulfonyl fluoride], the “binding seen in experimentally determined electron density” value in the test on thrombin was “covalent bond of the PMSF at Ser195”.
